Experimental data published in paper PMC5289892 (ACS chemical biology, 2016).

Assays:
ovine COX-1 = molecular target: T1, ovine COX-1 (Ovis aries, UniProt P05979); assay: Purified COX-1 enzyme inhibition assay; type: biochemical
T1 sequence (P05979 25-600): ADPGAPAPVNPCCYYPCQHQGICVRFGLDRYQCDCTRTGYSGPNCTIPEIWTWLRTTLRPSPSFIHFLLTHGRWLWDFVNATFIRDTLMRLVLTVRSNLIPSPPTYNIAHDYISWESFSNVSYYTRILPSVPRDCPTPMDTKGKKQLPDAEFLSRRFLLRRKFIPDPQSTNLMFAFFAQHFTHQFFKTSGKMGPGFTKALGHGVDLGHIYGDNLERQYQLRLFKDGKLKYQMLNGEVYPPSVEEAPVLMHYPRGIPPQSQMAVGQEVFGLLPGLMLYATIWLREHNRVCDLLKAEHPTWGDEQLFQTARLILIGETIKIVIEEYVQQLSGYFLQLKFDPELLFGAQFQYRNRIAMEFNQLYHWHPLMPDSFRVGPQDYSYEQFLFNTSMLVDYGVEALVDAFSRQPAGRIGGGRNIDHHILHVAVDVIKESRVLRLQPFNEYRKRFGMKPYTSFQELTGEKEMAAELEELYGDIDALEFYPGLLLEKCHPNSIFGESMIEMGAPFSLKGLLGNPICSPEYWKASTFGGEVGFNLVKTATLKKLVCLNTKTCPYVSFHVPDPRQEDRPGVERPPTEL

[1] = Animal weight in xenograft-bearing mice; conditions: 1483 xenograft-bearing mice, 14 days treatment
[2] = tested on: primary human mammary epithelial cells (HMEC); assay: Cell viability assay; type: cell-based; conditions: 48 h, read-out: EC50 cytostatic effect
1483 HNSCC xenografts = assay: In vivo tumor growth, 1483 HNSCC xenografts; conditions: 1483 xenograft-bearing nude mice, daily intraperitoneal, 14 days
mouse COX-2 = molecular target: T2, mouse COX-2 (Mus musculus, UniProt Q05769); assay: Purified COX-2 enzyme inhibition assay; type: biochemical
T2 sequence (Q05769 18-604): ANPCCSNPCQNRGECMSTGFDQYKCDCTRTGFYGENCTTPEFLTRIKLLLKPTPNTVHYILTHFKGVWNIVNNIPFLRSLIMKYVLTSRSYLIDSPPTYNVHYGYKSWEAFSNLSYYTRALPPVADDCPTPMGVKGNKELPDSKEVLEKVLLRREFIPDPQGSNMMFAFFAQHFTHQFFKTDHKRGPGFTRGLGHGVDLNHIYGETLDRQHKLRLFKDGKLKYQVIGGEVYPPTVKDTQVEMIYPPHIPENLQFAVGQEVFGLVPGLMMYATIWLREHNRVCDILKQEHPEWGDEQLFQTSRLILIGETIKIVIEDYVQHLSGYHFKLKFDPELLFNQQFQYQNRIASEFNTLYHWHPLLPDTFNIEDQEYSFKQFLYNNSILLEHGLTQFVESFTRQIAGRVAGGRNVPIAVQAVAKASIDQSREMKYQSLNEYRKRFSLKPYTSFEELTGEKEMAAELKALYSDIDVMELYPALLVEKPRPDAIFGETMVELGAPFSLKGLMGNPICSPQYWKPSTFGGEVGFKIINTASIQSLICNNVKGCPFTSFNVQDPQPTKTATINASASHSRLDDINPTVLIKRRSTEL

1483 HNSCC cells [3] = assay: Cell viability assay; type: cell-based, human; conditions: 48 h
1483 HNSCC cells [4] = assay: Reversibility of inhibition of 1483 cell growth; type: cell-based, human; conditions: 1483 cells

## COc1cc([C@@H]2c3cc4c(cc3[C@H](O)[C@H]3COC(=O)[C@H]23)OCO4)cc(OC)c1OC [Podophyllotoxin]
Ovine COX-1
  COX-1 inhibition, in words: inactive
[1]
  effect on animal weight: decrease in animal weight
[2]
  EC50: 360 nM
1483 HNSCC xenografts
  effect on tumor growth: no effect on tumor size
Mouse COX-2
  COX-2 inhibition, in words: inactive
1483 HNSCC cells [3]; 1483 cells
  lowest cell number reached, % of vehicle-treated cultures: ~ 35%
1483 HNSCC cells [3]; Homo sapiens, read-out: EC50 reduction in cell number
  EC50: 62 nM
1483 HNSCC cells [4]; 10 μM for 5 h, washout, further 72 h
  effect of washout on reduction in cell number: significant recovery of cell number
1483 HNSCC cells [4]; 10 μM, 72 h
  reduction of total cell number: ~ 80%
